The results in this text go back to US5362751A, “Tracheobronchodilator using 16-substituted PGEs” (priority 1988, dated 1994).

Molecules are shown by their SMILES. pIC50: −log10 of the molar value. Read-outs that look alike come from different tables or passages of the source.

The subject of one data set is tracheal smooth muscle. Description: Tracheaectasy: inhibition of histamin-induced contraction of circular slices of guinea pig trachea in Magnus tube. Particulars: contraction by 5.4×10^-4 M histamin, cumulative administration; for IC20: read-out: IC20 (concentration exhibiting the inhibition rate of 20%); for pIC50: read-out: IC50 (concentration exhibiting the inhibition rate of 50%). Here is the method:
A male guinea pig weighing about 300 g was beaten to death, and immediately drew the blood by cutting its arteriae femoral as pouring water. A trachea was picked out and cut lengthwise at the opposite side of tracheal smooth muscle and cut into circular slices between cartilages. The obtained seven circular slices of the trachea were tied like as a chain with a thread, and hung into Magnus tube.
After the circular slices of trachea were held for 60-90 minutes until it became stable (disappearence of convulsion), they were administered with 5.4×10^-4 M of histamin to be contracted. After the contraction reached to maximum, each test drug was cumulatively administered so as to inhibit the contraction caused by the histamin.

A further data set concerns trachea of humans. Put plainly: Stimuli of trachea by spraying inhalation in humans. Type of data set: in vivo, human. The following applies: 10 μg/ml solution sprayed at 2 ml/min, ultrasonic inhaler. The protocol: The strength of stimuli to trachea of humans was evaluated by actual spraying inhalation.
Each test drug was dissolved with a small amount of ethyl alcohol, to which distilled water was added to prepare a solution containing test drug at a concentration of 10 μg/ml. Four panels (K, D, T and O) were sprayed into their throats with the each test solution at a rate of 2 ml/min using an ultrasonic inhaler (NE-U10B available from Omlon K.K.), and the strength of the stimuli was observed.

The next data set concerns airway resistance. Put plainly: Inhibition of increase of airway resistance due to histamin in anesthetized guinea pig. Type of data set: in vivo. Particulars: intravenous, histamin 3 μg/kg one minute later. Here is the method: A male guinea pig weighing 300-400 g was intraperitoneally anesthetized with urethane 1.5 g/kg. The test animal was cannulated through the trachea, and then bromopanchlonium was intravenously administered at 0.3 mg/kg to make the test animal inactivate. The animal was respired using a vespirater for a small animal. The airway resistance was recorded on a recorder using a bronchospasin transducer. The administration of the test drug was made through a cannula into the jugular vein. The histamin was administered three times of each 3 μg/kg at 30 minutes intervals, and the increase of the airway resistance was determined. After the determination the test drug was intervenously administered, and then 4th administration of histamin was done after one minute. The increase of airway resistance due to histamin before and after the administration of the test drug was determined, from which inhibition rate of the increase due to the test drug was evaluated.

As for `COC(=O)CCC/C=C\C[C@H]1C(=O)C[C@@H](O)[C@@H]1CCC(=O)CCCC(C)C` [compound 40], in the data set on tracheal smooth muscle (Cavia porcellus), the IC20 amounted to 2000 nM and the pIC50 was 4.40.

`CC(C)=CCCCCC(=O)CC[C@H]1[C@H](O)CC(=O)[C@@H]1C/C=C\CCCC(=O)O` [compound 48]: the IC20 in the data set with tracheal smooth muscle (Cavia porcellus) was 10000 nM.

With `CCCCC(C)C(=O)CC[C@H]1[C@H](O)CC(=O)[C@@H]1CC(=O)CCCCC(=O)OC` (stereo partly shown) [Test drug 9, 13,14-dihydro-6,15-diketo-16R,S-methyl-PGE1 methyl ester], the “strength of stimuli to trachea, panel D” value in the data set on trachea of humans (panel D) is “-”. In the data set on trachea of humans (panel K), the “strength of stimuli to trachea, panel K” value was “-”. Moreover, in the data set on trachea of humans (panel O), the “strength of stimuli to trachea, panel O” value is recorded as “-”. In addition, in the data set on trachea of humans (panel T), the “strength of stimuli to trachea, panel T” value is on record as “-”.

For the molecule `COCCCCCC(=O)CC[C@H]1[C@H](O)CC(=O)[C@@H]1C/C=C\CC(C)CC(=O)OC` (stereo partly shown) [compound 44], the IC20 in the data set on tracheal smooth muscle (Cavia porcellus) came to 10000 nM.

For the molecule `CCCCC(F)C(=O)CC[C@H]1[C@H](O)CC(=O)[C@@H]1C/C=C\CCCC(=O)OCC` (stereo partly shown) [compound 35], in the data set with tracheal smooth muscle (Cavia porcellus), the IC20 was determined as 900 nM and the pIC50 was 4.70.

Consider `CCCCC(C)(C)C(=O)CCC1C(O)CC(=O)C1CC=CCCCC(=O)OCC` (stereo not shown) [compound 31], for which, in the data set with tracheal smooth muscle, the IC20 came to 400 nM and the pIC50 was 5.70.

As for `CCCCCCC(=O)CC[C@H]1[C@H](O)CC(=O)[C@@H]1CCCCCCC(=O)O` [compound 59], in the data set on tracheal smooth muscle (Cavia porcellus), the IC20 turned out to be 1000 nM and the pIC50 is 5.40.

`CCCCCCC(=O)CC[C@H]1[C@H](O)CC(=O)[C@@H]1CC(=O)CCCCC(=O)OCC` [compound 15]: in the data set on tracheal smooth muscle, the IC20 is 500 nM and the pIC50 is 5.40.

Take `CCCCC(F)C(=O)CC[C@H]1[C@H](O)CC(=O)[C@@H]1CCCCCCC(=O)O` (stereo partly shown) [compound 62]: the IC20 in the data set with tracheal smooth muscle (Cavia porcellus) turned out to be 4000 nM.

Regarding `CCCCC[C@H](O)/C=C/[C@H]1[C@H](O)CC(=O)[C@@H]1CCCCCCC(=O)O` [compound 56], in the data set on tracheal smooth muscle (Cavia porcellus), the IC20 is 2 nM and the pIC50 was 7.10.

Regarding `CCCCCCCC(=O)CC[C@H]1[C@H](O)CC(=O)[C@@H]1C/C=C\CCCC(=O)OCC` [compound 51], in the data set with tracheal smooth muscle (Cavia porcellus), the IC20 is 1000 nM and the pIC50 was 5.00.

In the case of `COC(=O)CCCCC(=O)CC1C(=O)CC(O)C1CCC(=O)CCCC(C)C` (stereo not shown) [compound 13], in the data set with tracheal smooth muscle, the IC20 came out at 1000 nM and the pIC50 was 4.52.

With `CCCCC(C)(C)C(=O)CC[C@H]1[C@H](O)CC(=O)[C@@H]1C/C=C\CCCC(=O)OC` [compound 30], in the data set on tracheal smooth muscle, the IC20 was 600 nM and the pIC50 is 5.70.

Consider `CCC[C@H](C)CC(=O)CC[C@H]1[C@H](O)CC(=O)[C@@H]1C/C=C\CCCC(=O)OC` [compound 39], for which, in the data set on tracheal smooth muscle (Cavia porcellus), the IC20 came out at 3000 nM and the pIC50 was 4.22.

For `CCC[C@H](C)CC(=O)/C=C/[C@H]1[C@H](O)CC(=O)[C@@H]1C/C=C\CCCC(=O)OCC` [compound 61], in the data set on tracheal smooth muscle (Cavia porcellus), the IC20 amounted to 700 nM and the pIC50 was 5.60.

Turning to `COC(=O)CCC/C=C\C[C@H]1C(=O)C[C@@H](O)[C@@H]1CCC(=O)CCCCC=C(C)C` [compound 49], the IC20 in the data set on tracheal smooth muscle (Cavia porcellus) was 7000 nM.

For the molecule `CCOC(=O)CCCCC(=O)C[C@H]1C(=O)C[C@@H](O)[C@@H]1CCC(=O)CCC(C)CC` (stereo partly shown) [compound 63], the IC20 in the data set with tracheal smooth muscle (Cavia porcellus) was determined as 10000 nM.

With `CCCCC(C)(C)C(=O)CC[C@H]1[C@H](O)CC(=O)[C@@H]1CC(=O)CCCCC(=O)OCC` [compound 11], in the data set with tracheal smooth muscle, the IC20 was 800 nM and the pIC50 is 5.40.

Take `CCCCCC(=O)CC[C@H]1[C@H](C)CC(=O)[C@@H]1C/C=C\CCCC(=O)OCC` [compound 38]: in the data set on tracheal smooth muscle (Cavia porcellus), the IC20 came out at 600 nM and the pIC50 is 5.15.

As for `CCCCCCCC(=O)CC[C@H]1[C@H](O)CC(=O)[C@@H]1C/C=C\CCCC(=O)OC` [compound 50], the IC20 in the data set on tracheal smooth muscle (Cavia porcellus) worked out at 20000 nM.

`CCCCC(C)C(=O)CC[C@H]1[C@H](O)CC(=O)[C@@H]1CCCCCCC(=O)OC` (stereo partly shown) [compound 64]: in the data set on tracheal smooth muscle (Cavia porcellus), the IC20 amounted to 300 nM and the pIC50 was 6.00.

Take `CCCCC(F)C(=O)/C=C/[C@H]1[C@H](O)CC(=O)[C@@H]1C/C=C\CCCC(=O)O` (stereo partly shown) [compound 60]: in the data set with tracheal smooth muscle (Cavia porcellus), the IC20 came out at 3000 nM and the pIC50 was 5.15.

For `CCCCC(C)C(=O)CCC1C(O)CC(=O)C1CC=CCCCC(=O)OCC` (stereo not shown) [compound 28], in the data set on tracheal smooth muscle, the IC20 came out at 700 nM and the pIC50 is 5.15.

With `CCCCC(C)C(=O)CCC1C(O)CC(=O)C1CC(=O)CCCCC(=O)OCC` (stereo not shown) [compound 10], in the data set on tracheal smooth muscle, the IC20 came out at 100 nM and the pIC50 is 6.22.

Turning to `CCCCC(F)(F)C(=O)CC[C@H]1[C@H](O)CC(=O)[C@@H]1C/C=C\CCCC(=O)O` [13,14-dihydro-15-keto-16,16-difluoro-PGE2], the “inhibition rate of increase of airway resistance” value with airway resistance (dose 1 μg/kg) is recorded as 42%; in the data set with airway resistance (dose 3 μg/kg), 100%.

In the case of `CCCCC(F)C(=O)CC[C@H]1[C@H](CC)CC(=O)[C@@H]1C/C=C\CCCC(=O)OCC` (stereo partly shown) [compound 37], in the data set with tracheal smooth muscle (Cavia porcellus), the IC20 was 400 nM and the pIC50 was 5.10.

Turning to `CCCCCCCCC(=O)CC[C@H]1[C@H](O)CC(=O)[C@@H]1C/C=C\CCCC(=O)OC` [compound 53], the IC20 in the data set with tracheal smooth muscle (Cavia porcellus) worked out at 10000 nM.

In the case of `COCCCC(=O)CC[C@H]1[C@H](O)CC(=O)[C@@H]1C/C=C\CCCC(=O)OC` [compound 47], in the data set with tracheal smooth muscle (Cavia porcellus), the IC20 is 600 nM and the pIC50 is 5.52.

In the case of `CCCCC(C)C(=O)CCC1C(O)CC(=O)C1CC(=O)CCCCC(=O)OC` (stereo not shown) [compound 9], in the data set on tracheal smooth muscle, the IC20 was 100 nM and the pIC50 is 6.40.

For `COCCCCCC(=O)CC[C@H]1[C@H](O)CC(=O)[C@@H]1C/C=C\CCCC(=O)OC` [compound 42], the IC20 with tracheal smooth muscle (Cavia porcellus) is 10000 nM.

`CCCCC[C@H](O)/C=C/[C@H]1[C@H](O)CC(=O)[C@@H]1C/C=C\CCCC(=O)O` [Test drug 57, (z)-7-{(1R,2R,3R)-3-hydroxy-2-[(E)-(3S)-3-hydroxy-1-octenyl]-5-oxo-cyclopentyl}-hept-5-enoic acid, reference compound]: the “inhibition rate of increase of airway resistance” value in the data set on airway resistance (dose 3 μg/kg) was determined as 92%.

Take `CCCCCC(=O)CC[C@H]1[C@H](O)CC(=O)[C@@H]1C/C=C\CC(C)CC(=O)OC` (stereo partly shown) [compound 25]: in the data set on tracheal smooth muscle, the IC20 is 40000 nM.

Consider `CCCCC(C)C(=O)CC[C@H]1[C@H](O)CC(=O)[C@@H]1C/C=C\CCCC(=O)OC` (stereo partly shown) [compound 27], for which, in the data set on tracheal smooth muscle, the IC20 came out at 80 nM and the pIC50 is 6.40.

Consider `CCCCC(F)C(=O)/C=C/[C@H]1[C@H](O)CC(=O)[C@@H]1C/C=C\CCCC(=O)OC` (stereo partly shown) [compound 55], for which, in the data set with tracheal smooth muscle (Cavia porcellus), the IC20 stood at 2000 nM and the pIC50 is 5.00.

As for `CCCCCC(F)C(=O)CC[C@H]1[C@H](O)CC(=O)[C@@H]1C/C=C\CCCC(=O)OC` (stereo partly shown) [compound 36], in the data set with tracheal smooth muscle (Cavia porcellus), the IC20 worked out at 500 nM and the pIC50 was 5.30.

As to `CCCCCC(=O)CCC1C(O)CC(=O)C1CC=CCC(C)CC(=O)OCC` (stereo not shown) [compound 26], in the data set on tracheal smooth muscle, the IC20 came to 1000 nM and the pIC50 is 5.15.

For the molecule `COCCCCC(C)(C)C(=O)CC[C@H]1[C@H](O)CC(=O)[C@@H]1C/C=C\CCCC(=O)OC` [compound 45], in the data set with tracheal smooth muscle (Cavia porcellus), the IC20 was 2000 nM and the pIC50 was 5.00.

For the molecule `CCCCC(C)C(=O)CC[C@H]1[C@H](O)CC(=O)[C@@H]1C/C=C\CC(C)CC(=O)OC` (stereo partly shown) [compound 29], in the data set on tracheal smooth muscle, the IC20 was 600 nM and the pIC50 was 5.15.

Turning to `CCOC(=O)CCC/C=C\C[C@H]1C(=O)C[C@@H](O)[C@@H]1CCC(=O)CCCC(C)C` [compound 41], the IC20 with tracheal smooth muscle (Cavia porcellus) was 4000 nM.

Turning to `CCCCCCCC(=O)CC[C@H]1[C@H](C)CC(=O)[C@@H]1C/C=C\CCCC(=O)OC` [compound 52], the IC20 in the data set on tracheal smooth muscle (Cavia porcellus) was determined as 1000 nM.

As for `CCC[C@H](C)CC(=O)CC[C@H]1[C@H](O)CC(=O)[C@@H]1C/C=C\CCCC(=O)OCC` [compound 58], in the data set with tracheal smooth muscle (Cavia porcellus), the IC20 was 1000 nM and the pIC50 is 4.52.

`COCCCCCC(=O)CC[C@H]1[C@H](O)CC(=O)[C@@H]1CC#CCCCC(=O)OC` [compound 46]: in the data set with tracheal smooth muscle (Cavia porcellus), the IC20 was determined as 10000 nM.

On to `CCCCC[C@H](O)/C=C/[C@H]1[C@H](O)CC(=O)[C@@H]1C/C=C\CCCC(=O)O` [compound 57], for which, in the data set on tracheal smooth muscle (Cavia porcellus), the IC20 stood at 10 nM and the pIC50 is 7.00.

Regarding `CCCCCC(=O)/C=C/[C@H]1[C@H](O)CC(=O)[C@@H]1C/C=C\CCCC(=O)O` [compound 54], in the data set on tracheal smooth muscle (Cavia porcellus), the IC20 worked out at 8000 nM and the pIC50 is 4.52.

In the case of `CCOC(=O)CCCCC(=O)CC1C(=O)CC(O)C1CCC(=O)CCCC(C)C` (stereo not shown) [compound 14], in the data set with tracheal smooth muscle, the IC20 was 900 nM and the pIC50 was 4.52.
